{
  "source": "patent US20070254907A1",
  "about": "“COMPOSITIONS AND METHODS FOR CONTROLLING INFESTATION” (HATCHTECH PTY LTD, priority 2003, published 2007)",
  "key": {"[1]": {"system": "proteases in egg shell washings (ESW) of lice eggs", "assay": "Gelatin substrate SDS-PAGE of lice egg shell washings (ESW) incubated with protease inhibitors", "assay_type": "biochemical, Pediculus humanus humanus", "conditions": "gel strips incubated with inhibitor: PMSF 5 mM, 1,10-phenanthroline 10 mM, EDTA 10 mM, pepstatin 5 μM, E-64 10 μM", "experimental": "Within 12 hours of hatching 50 body lice eggs (Pediculus humanus humanus) were removed from the hair and placed in a 1 mL eppendorf tube. 20 μL of distilled water was added to the unhatched eggs and the preparation incubated for 30 minutes at 32° C. The 20 μL was recovered, freeze dried and stored at −70° C. This sample was referred to as sample 1. A number of other samples were also collected as described. Sample 2 was collected by removing the unhatched louse eggs from four hairs that were approximately 3 cm long, cutting the hair into 0.5 cm lengths, and placing them into a microfuge tube containing 20 μl of distilled water and incubating at 32° C. for 30 minutes. Sample 3 was collected as for sample 2, but the hair was placed in a tube containing 10 mL of 1% sodium hypochlorite for 1 minute followed by five 1 minute washes in 25 mL of distilled water to remove the sodium hypochlorite before being incubated in a microfuge tube containing 20 μl of distilled water and incubated as for Sample 2. Sample 4 was collected from unhatched eggs which were removed from the hair and washed with 1% sodium hypochlorite and incubated in 20 μl of distilled water in the same manner as the hair in Sample 3. Finally, Sample 5 was collected from eggs that were within 24 hrs of hatching which were washed with 1% sodium hypochlorite, then returned to the incubator at 32° C. until they hatched, the empty egg shells collected 0-2 hrs after egg-hatching, placed in a 1 mL microfuge tube containing 20 μl of distilled water and incubated as for Samples 1-4. For all samples 1-5 the 20 μl of fluid was recovered, freeze-dried and stored at −70° C. The washings recovered from these freshly hatched egg shells are referred to as egg-shell-washings (ESWs). In order to look for the presence of proteases present in these different samples, the freeze-dried samples were resuspended in 15 μL of non-reducing SDS sample buffer, centrifuged at 10,000 g for 2 minutes and the entire 15 μL loaded on to 10% gelatine substrate SDS-PAGE gels. Gels were run at 4° C. for 10 minutes at 10 mA followed by a further 25 minutes at 15 mA per gel. They were then incubated for 2×20 minutes in a 2.5% Triton-X 100 solution followed by a three hour incubation in 0.1M Tris/HCl containing 1 mM CaCl2 pH 8.0. Activity was detected as clear areas on the gel the result of protease activity degrading the gelatine within the gel.\nProtease activity in the ESWs from louse eggs was also examined using two-dimensional gel electrophoresis. It was necessary to collect large numbers of freshly hatched egg shells. Following egglaying onto pieces of cloth, adult female lice were removed and the cloth with the eggs washed with 1% sodium hypochlorite as for collection of ESWs. The eggs were then returned to the incubator and permitted to hatch. Typically 100 to 500 hatched egg shells were collected (0-2 hours post hatching), placed in a microfuge tube containing 200 μl of distilled water, incubated and sample treated as described above. For analysis, ESWs were resuspended in rehydration buffer (8 M Urea, 2% 3-[(3-cholamidopropyl) dimethylammonio]-1-propanesulfonate 2% Immobilised pH gradient buffer 3-10 (Amersham Phamacia Biotech, Uppsala, Sweden)) and used to rehydrate 7 cm Immobiline Dry strips pH 3-10 (Amersham Bioscience) overnight. Strips were transferred to the Multiphor II (Pharmacia, Sweden) apparatus, electrophoresed in the first dimension at 200 V for 1 min, increasing to 3,500 V over the next 90 min followed by 65 min at 3,500 V, equilibrated (6 M urea, 30% glycerol, 50 mM Tris pH 8.8 and 2% SDS) and then run on a 10% SDS-PAGE gel containing 0.1% gelatin for the second dimension. The gel was then run and developed as previously described.\n10% SDS-PAGE gelatine substrate gels were loaded with freeze dried egg shell washings from 100 lice eggs that had been resuspended in 50 μL of non-reducing sample buffer with samples run at 10 μL per lane. […]"}, "Plutella xylostella eggs [2]": {"system": "Plutella xylostella eggs", "assay": "whole plant or invertebrate", "assay_type": "in vivo", "conditions": "for ovicidal efficacy against Plutella: 1% diethoxyglycol (FIG. 7); for inhibition of Plutella egg hatching: 1% diethoxyglycol; for Number hatched / Number unhatched: Table 17, eggs laid on cloth; for % Inhibition: Table 17, relative to control (1% diethoxyglycol)", "experimental": "The ovicidal efficacy of 2-acetyl-1-tetralone was also tested against Plutella eggs."}, "[3]": {"system": "Helicoverpa armigera eggs", "assay": "Egg hatching of Helicoverpa armigera", "conditions": "1% diethoxyglycol in water (FIG. 6)", "quoted_text": "A range of concentrations were made up in water and the eggs placed in the solutions for approximately 2-10 seconds. The eggs which had been laid on cloth were then blotted dry and placed in an incubator at 26° C. for 3-4 days until hatch. Hatch rates were then assessed compared to a water only treated control (FIG. 5).\nThe compound was dissolved in 100% diethoxyglycol and diluted to a final concentration of 1% in water.\nSeveral hundred Helicoverpa armigera eggs (Tatura×Toowoomba strains) were collected, that had been laid on fine mesh cloth over a 24 hour period.\nBatches of Helicoverpa eggs were exposed to a specific inhibitor solution for between 2-10 seconds the excess solution drained by blotting with dry tissue paper. The egg masses were then placed in a humid box at 25 degrees until egg hatch. Control eggs were exposed to absolute methanol as described above. At day 6 post laying the eggs were assessed from the different treatments and the percentage of egg hatch determined relative to the control as shown in Table 12.\nBatches of Helicoverpa eggs were then exposed to a specific inhibitor solution for between 2-10 seconds the excess solution drained by blotting with dry tissue paper. The egg masses were then placed in a humid box at 25° C. until egg hatch. Control eggs were exposed to absolute methanol as described above. At day 6 post laying the eggs were assessed from the different treatments and the percentage of egg hatch determined relative to the control as shown in Table 13."}, "H. contortus eggs": {"system": "H. contortus eggs", "assay": "Egg hatching in Haemonchus contortus", "assay_type": "in vivo", "experimental": "In an attempt to improve control of H. contortus the effects of the compound 5,5′-dimethyl-2,2′-dipyridyl was examined on H. contortus eggs. Eggs were recovered from the faeces of infected sheep using a standard sucrose floatation method. The eggs were corrected to a density of approximately 2,500 eggs per mL and were then exposed to varying concentrations of compound and incubated for 48 hours at 25° C. The eggs were then examined to determine the ovicidal efficacy of the compound in comparison to untreated control and a solvent only control.\nIn addition, the ovicidal efficacy of the compound 2-acetyl-1-tetralone was examined against H. contortus (FIG. 10). The same protocol was used as described for 5,5′-dimethyl-2,2′-dipyridyl."}, "Plutella xylostella eggs [4]": {"system": "Plutella xylostella eggs", "assay": "Glass house ovicidal test on sprayed cabbage plants", "assay_type": "in vivo", "conditions": "10 eggs per cabbage plant, one value per plant", "text": "A number of treatments and replicates were set up in the glass house using young cabbage plants that were at the 4-5 leaf stage. Plutella xylostella eggs were laid by gravid females on the leaves such that each plant contained 10 eggs. The plants were sprayed with a commercial ovicide or using the compounds 5,5′-dimethyl-2,2′-dipyridyl and 5,5′diethyl-2,2′-dipyridyl in a formulation at the rate of 200 L/Ha using a track sprayer. Controls of water only or Placebo only were also included. The ovicidal efficacy was monitored over a number of days an the number of eggs hatching and caterpillar larvae emerging recorded (Table 22)."}, "[5]": {"system": "Lice (L) and Plutella (P) eggs", "conditions": "in vivo"}, "[6]": {"system": "Lice (L) and Plutella (P) eggs", "assay": "whole plant or invertebrate", "conditions": "read-out: Ovicidal activity %"}, "[7]": {"conditions": "0-24 h, 10 mM (200 L/Ha), with wetting agent 0.3 ml/L"}},
  "note": "Square brackets hold non-standard residues; d marks the D form. Peptide text beside a SMILES is read from it. * marks the point of attachment. Sta = CC(C)C[C@H](N)[C@@H](O)CC(=O)O; Isovaleryl = CC(C)CC(=O)*",
  "data": [
    {"smiles": "O=C(O)CN(CCN(CC(=O)O)CC(=O)O)CC(=O)O", "note": "[EDTA, ethylenediamine tetraacetic acid]", "values": [
      {"measurement": "protease activity of ESW on gelatin SDS-PAGE compared to untreated controls", "setting": "[1]", "value": "reduction in protease activity"}
    ]},
    {"smiles": "CC(=O)C1CCc2ccccc2C1=O", "note": "(stereo not drawn) [2-acetyl-1-tetralone]", "values": [
      {"measurement": "ovicidal efficacy against Plutella", "setting": "Plutella xylostella eggs [2]; 0.5 mM", "value": "no inhibition observed"},
      {"measurement": "ovicidal efficacy against Plutella", "setting": "Plutella xylostella eggs [2]; 2 and 1 mM", "value": "strong ovicidal efficacy"},
      {"measurement": "inhibition at 1000 µM", "setting": "Plutella xylostella eggs [2]; Plutella xylostella, Plutella (P), 1 mM, read-out: Ovicidal activity %", "value": 100, "unit": "%"},
      {"measurement": "inhibition at 10000 µM", "setting": "Plutella xylostella eggs [2]; Plutella xylostella, Plutella (P), 10 mM, read-out: Ovicidal activity %", "value": 100, "unit": "%"},
      {"measurement": "ovicidal efficacy against H. armigera eggs", "setting": "[3]; 1 mM", "value": "efficacy declining"},
      {"measurement": "ovicidal efficacy against H. armigera eggs", "setting": "[3]; 2 mM", "value": "strong ovicidal efficacy"},
      {"measurement": "inhibition of H. contortus egg hatch", "setting": "H. contortus eggs; 22 ug/mL (0.1 mM) (FIG. 10)", "value": "Partial inhibition of egg hatching"},
      {"measurement": "inhibition of H. contortus egg hatch", "setting": "H. contortus eggs; 220 ug/mL (1 mM) and 110 ug/mL (0.5 mM) (FIG. 10)", "value": "highly effective at inhibiting egg hatch"}
    ]},
    {"smiles": "O=S(=O)(F)Cc1ccccc1", "note": "[PMSF]", "values": [
      {"measurement": "protease activity of ESW on gelatin SDS-PAGE compared to untreated controls", "setting": "[1]", "value": "no apparent reduction in protease activity"}
    ]},
    {"smiles": "Cc1ccc(-c2ccc(C)cn2)nc1", "note": "[5,5′dimethyl-2,2′-dipyridyl]", "values": [
      {"measurement": "# LARVAE EMERGED", "setting": "Plutella xylostella eggs [4]; [7]", "value": 0},
      {"measurement": "# LARVAE EMERGED", "setting": "Plutella xylostella eggs [4]; 0-24 h, 20 mM (200 L/Ha), with wetting agent 0.3 ml/L", "value": 0},
      {"measurement": "# LARVAE EMERGED", "setting": "Plutella xylostella eggs [4]; 24-48 h, 10 mM (200 L/Ha), with wetting agent 0.3 ml/L", "value": 0},
      {"measurement": "# LARVAE EMERGED", "setting": "Plutella xylostella eggs [4]; 24-48 h, 20 mM (200 L/Ha), with wetting agent 0.3 ml/L", "value": 0},
      {"measurement": "# LARVAE EMERGED", "setting": "Plutella xylostella eggs [4]; 48-72 h, 20 mM (200 L/Ha), with wetting agent 0.3 ml/L", "value": 0}
    ]},
    {"smiles": "COc1ccc(C(=O)CC(=O)c2ccc(C(C)(C)C)cc2)cc1", "note": "[1-(4-tert-butylphenyl)-3-(4-methoxyphenyl)-propane-1,3-dione]", "values": [
      {"measurement": "Logit calc pLD50", "setting": "[5]", "value": 0.7},
      {"measurement": "Pref pLD50", "setting": "[5]", "value": "<2"},
      {"measurement": "inhibition at 10000 µM", "setting": "[6]", "value": 0, "unit": "%"}
    ]},
    {"smiles": "CCc1ccc(-c2ccc(CC)cn2)nc1", "note": "[5,5′-diethyl-2,2′-dipyridyl]", "values": [
      {"measurement": "inhibition of Plutella egg hatching", "setting": "Plutella xylostella eggs [2]; 0.1 mM", "value": "Partial inhibition of egg hatching"},
      {"measurement": "inhibition of Plutella egg hatching", "setting": "Plutella xylostella eggs [2]; 1 mM", "value": "complete inhibition"},
      {"measurement": "Number hatched", "setting": "Plutella xylostella eggs [2]; 0.1 mM in 1% diethoxyglycol", "value": 22},
      {"measurement": "Number unhatched", "setting": "Plutella xylostella eggs [2]; 0.1 mM in 1% diethoxyglycol", "value": 34},
      {"measurement": "Number hatched", "setting": "Plutella xylostella eggs [2]; 1 mM in 1% diethoxyglycol", "value": 0},
      {"measurement": "Number unhatched", "setting": "Plutella xylostella eggs [2]; 1 mM in 1% diethoxyglycol", "value": 34},
      {"measurement": "% Inhibition", "setting": "Plutella xylostella eggs [2]; 0.1 mM", "value": 31, "unit": "%"},
      {"measurement": "% Inhibition", "setting": "Plutella xylostella eggs [2]; 1 mM", "value": 100, "unit": "%"},
      {"measurement": "# LARVAE EMERGED", "setting": "Plutella xylostella eggs [4]; 0-24 h, 10 mM (200 L/Ha) No Wetting Agent", "value": 0},
      {"measurement": "# LARVAE EMERGED", "setting": "Plutella xylostella eggs [4]; [7]", "value": 0}
    ]},
    {"smiles": "CC(C)CC(=O)N[C@H](C(=O)N[C@H](C(=O)N[C@@H](CC(C)C)[C@@H](O)CC(=O)N[C@@H](C)C(=O)N[C@@H](CC(C)C)[C@@H](O)CC(=O)O)C(C)C)C(C)C", "note": "[pepstatin] (Isovaleryl-VV[Sta]A[Sta]-OH)", "values": [
      {"measurement": "protease activity of ESW on gelatin SDS-PAGE compared to untreated controls", "setting": "[1]", "value": "no apparent reduction in protease activity"}
    ]},
    {"smiles": "CC(C)C[C@H](NC(=O)[C@H]1O[C@@H]1C(=O)O)C(=O)NCCCCN=C(N)N", "note": "[E-64]", "values": [
      {"measurement": "protease activity of ESW on gelatin SDS-PAGE compared to untreated controls", "setting": "[1]", "value": "no apparent reduction in protease activity"}
    ]}
  ]
}
